In US12123048B2, “Fluorinated 4′-alkylumbelliferyl a-D-glucopyranosides, biological sterilization indicators including the same and methods of using the same” (3M INNOVATIVE PROPERTIES COMPANY, priority 2018, dated 2024):

Test: Measurement of enzyme substrate degradation (100° C. for 15 minutes) by fluorescence
Type: physicochemical
Conditions: no spores, read at 60° C.
Experimental: Luria-Bertani (LB) broth was prepared by dissolving tryptone (10 g/L), yeast extract (5 g/L), and NaCl (5 g/L) in deionized water. In the examples, 6′-fluoro-4′-methylumbelliferyl α-D-glucopyranoside (0.3 mg/mL) or 5′-fluoro-4′-methylumbelliferyl α-D-glucopyranoside (0.3 mg/mL) was added to the broth. In the comparative examples, 4′-methylumbelliferyl α-D-glucopyranoside (MUG) (0.3 mg/mL) or 6′,8′-Difluoro-4′-methylumbelliferyl α-D-glucopyranoside (0.3 mg/mL) was added to the broth. The pH of the broth was adjusted to either pH 6, pH 7, pH 8, or pH 9 using 0.1 N hydrochloric acid or 1N sodium hydroxide solutions. The broth was passed through a 0.22 micron filter prior to use.
(§1) An 800-microliter sample of LB broth (pH 6) containing 6′-fluoro-4′-methylumbelliferyl α-D-glucopyranoside (0.3 mg/mL) (enzyme substrate of Example 1) was added to a 1.5 mL microcentrifuge tube and the capped tube was placed in a heating block at 100° C. for 15 minutes. A metal block was placed on top of the tube to keep the cap sealed during heating. The sample was cooled to ambient temperature and then added to two wells (100 microliters per well) of a black 96-well microtiter plate with optically clear, flat bottom wells (NUNC #165301, Thermo Fisher Scientific). The top of the plate was covered with an optically clear sealing film (product #4311971, Applied Biosystems Corporation). The plate was warmed at 60° C. and shaken in a linear direction. Fluorescence readings (360 nm excitation/450 nm emission at 50% gain) were taken from the bottom of the plate. A reading was taken at an initial time point of 10 seconds and then at +1 minute intervals thereafter. A Synergy Neo2 fluorescence plate reader (BioTek Company) was used. In Table 5, the mean fluorescence values detected (RFU) at times of 10 seconds, +5 minutes, +10 minutes, and +30 minutes are reported.
as §1, with “7)” for “6)”, “6,” for “5,”
as §1, with “8)” for “6)”, “A Synergy Neo2 fluorescence plate reader (BioTek Company) was used. In Table 5, the mean fluorescence values detected (RFU) at times of 10 seconds, +5 minutes, +10 minutes, and +30 minutes are reported.” left out

Row | MEASURED FLUORESCENCE, RFU 10 sec (pH 6 LB broth) | MEASURED FLUORESCENCE, RFU +5 min (pH 6 LB broth) | MEASURED FLUORESCENCE, RFU +10 min (pH 6 LB broth) | MEASURED FLUORESCENCE, RFU +30 min (pH 6 LB broth) | MEASURED FLUORESCENCE, RFU 10 sec (pH 7 LB broth) [RFU] | MEASURED FLUORESCENCE, RFU +5 min (pH 7 LB broth) [RFU] | MEASURED FLUORESCENCE, RFU +10 min (pH 7 LB broth) [RFU] | MEASURED FLUORESCENCE, RFU +30 min (pH 7 LB broth) [RFU] | MEASURED FLUORESCENCE, RFU 10 sec (pH 8 LB broth) [RFU] | MEASURED FLUORESCENCE, RFU +5 min (pH 8 LB broth) [RFU] | MEASURED FLUORESCENCE, RFU +10 min (pH 8 LB broth) [RFU] | MEASURED FLUORESCENCE, RFU +30 min (pH 8 LB broth) [RFU] | MEASURED FLUORESCENCE, RFU 10 sec (pH 9 LB broth) [RFU] | MEASURED FLUORESCENCE, RFU +5 min (pH 9 LB broth) [RFU] | MEASURED FLUORESCENCE, RFU +10 min (pH 9 LB broth) [RFU] | MEASURED FLUORESCENCE, RFU +30 min (pH 9 LB broth) [RFU] | SMILES
1 | 10,605 RFU | 10,851 RFU | 10,748 RFU | 10,663 RFU | 12986 | 13409 | 13403 | 13283 | 14015 | 14483 | 14494 | 14331 | 18584 | 19052 | 18990 | 18683 | Cc1cc(=O)oc2c(F)c(O[C@H]3O[C@H](CO)[C@@H](O)[C@H](O)[C@H]3O)c(F)cc12 [Comparative Example A, 6′,8′-Difluoro-4′-methylumbelliferyl α-D-glucopyranoside]
2 | 967 RFU | 909 RFU | 852 RFU | 782 RFU | 823 | 790 | 745 | 670 | 714 | 685 | 643 | 567 | 654 | 622 | 575 | 500 | Cc1cc(=O)oc2cc(O[C@H]3O[C@H](CO)[C@@H](O)[C@H](O)[C@H]3O)ccc12 [MUG, 4′-methylumbelliferyl-α-D-glucopyranoside]
3 | 933 RFU | 852 RFU | 805 RFU | 758 RFU | 831 | 777 | 733 | 673 | 748 | 705 | 658 | 579 | 675 | 625 | 584 | 530 | Cc1cc(=O)oc2cc(O[C@H]3O[C@H](CO)[C@@H](O)[C@H](O)[C@H]3O)cc(F)c12 [Example 2, 5′-Fluoro-4′-methylumbelliferyl α-D-glucopyranoside]
4 | 1108 RFU | 1096 RFU | 1040 RFU | 948 RFU | 1209 | 1183 | 1130 | 1037 | 1145 | 1130 | 1092 | 1026 | 1449 | 1437 | 1388 | 1330 | Cc1cc(=O)oc2cc(O[C@H]3O[C@H](CO)[C@@H](O)[C@H](O)[C@H]3O)c(F)cc12 [Example 1, 6′-Fluoro-4′-methylumbelliferyl α-D-glucopyranoside]
